# Results as given in PubChem BioAssay AID1871 (NMMLSC, 2009).
# pEC50, pKi: −log10 of the molar value. Active and inactive are the calls of the source. The rule behind the calls is not given here.
# Molecular target: Regulator of G-protein signaling 7 (Homo sapiens) (UniProt P49802)
# Experiment: RGS7-Galphao binding modulators, dose response, biochemical, multiplexed bead flow cytometry (AID 1871)
# Conditions: bead-based flow cytometry
# Regulator of G-protein signaling 7 (Homo sapiens), sequence (P49802 whole entry, looked up): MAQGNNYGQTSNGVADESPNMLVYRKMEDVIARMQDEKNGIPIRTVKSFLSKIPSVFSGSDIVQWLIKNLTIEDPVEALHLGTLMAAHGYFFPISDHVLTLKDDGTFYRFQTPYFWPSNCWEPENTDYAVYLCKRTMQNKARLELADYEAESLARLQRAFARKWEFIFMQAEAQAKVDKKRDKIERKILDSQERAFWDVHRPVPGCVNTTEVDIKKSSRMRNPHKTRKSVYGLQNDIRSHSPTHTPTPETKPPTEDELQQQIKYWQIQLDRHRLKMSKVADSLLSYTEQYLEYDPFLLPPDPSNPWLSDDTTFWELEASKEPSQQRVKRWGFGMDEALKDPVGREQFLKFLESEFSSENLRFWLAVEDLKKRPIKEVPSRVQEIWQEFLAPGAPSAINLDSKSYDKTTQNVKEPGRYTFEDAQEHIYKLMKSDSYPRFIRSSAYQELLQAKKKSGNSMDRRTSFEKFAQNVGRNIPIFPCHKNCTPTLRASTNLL
Structure (SMILES),EC50,pEC50
CCOC(=O)C1=C(C)NC(C)=C(C(=O)OCCNC(=O)c2cccnc2)C1c1cccc([N+](=O)[O-])c1 (stereo not drawn),> 30 µM (inactive),–
CCOC(=O)N=Nc1c(O)n(C)c2ccccc12,> 30 µM (inactive),–
O=C1CCCC2=C1C(c1cccs1)n1ncnc1N2 (stereo not drawn),> 30 µM (inactive),–
COc1ccc(Br)cc1/C=N/Nc1cccc(C(=O)O)c1,> 30 µM (inactive),–
O=c1[nH]c(=S)n(Cc2ccco2)c(O)c1C=NCc1cccs1,> 30 µM (inactive),–
CN(C)[C@@H]1C(=O)C(C(=O)NCN2CCCC2)=C(O)[C@@]2(O)C(=O)C3=C(O)c4c(O)cccc4[C@@](C)(O)C3CC12 (stereo partly drawn),–,5.36
CCOC(=O)/C(C(=O)Nc1ccccc1Cl)=C1/NC(C)(C)Cc2ccccc21,> 30 µM (inactive),–
CC(C)Sc1nc2ccc(N3C(=O)C4CCCCC4C3=O)cc2s1 (stereo not drawn),> 30 µM (inactive),–
NS(=O)(=O)c1ccc(N/N=C/c2ccc(O)c(O)c2O)c([N+](=O)[O-])c1,–,5.71

# Same assay, conditions: bead-based flow cytometry, measured here: Ki for RGS7-Galphao
row,Structure (SMILES),pKi
1,CCOc1ccccc1-c1c2cc(O)c(=O)cc-2oc2cc(O)c(O)cc12,5.21
2,CCN=c1scc(C)n1/N=C/c1ccc(O)c(O)c1O,4.93
3,COc1ccc(OC)c(CCNC(=O)Cn2sc3nc(C)cc(C)c3c2=O)c1,5.46
4,O=C1C(Cl)=C(N2CCCCC2)C(=O)C(Cl)=C1c1cnc(N2CCCCC2)s1,6.15
5,CCCNC(=O)Cn1sc2nc(C)cc(C)c2c1=O,5.39
6,CCC(=O)NC1=C(Cl)C(=O)C(NC(=O)CC)=C(Cl)C1=O,5.48
7,CC1(C)OC(=O)C(=Cc2ccc(-c3ccc(S(N)(=O)=O)cc3)o2)C(=O)O1,5.31
8,O=C(O)C[C@@H]1C(=O)O[C@@H]2C(COC(=O)c3cc(O)c(O)c(O)c3)O[C@@H](OC(=O)c3cc(O)c(O)c(O)c3)[C@@H](OC(=O)c3cc(O)c(O)c4c3[C@H]1[C@H](O)C(=O)O4)[C@H]2OC(=O)c1cc(O)c(O)c(O)c1 (stereo partly drawn),6.29
9,CC(=O)N(O)CCCCCNC(=O)CCC(=O)N(O)CCCCCNC(=O)CCC(=O)N(O)CCCCCN,5.98
10,O=C1CCC(=O)N(O)CCCCCNC(=O)CCC(=O)N(O)CCCCCNC(=O)CCC(=O)N(O)CCCCCN1,5.70
11,COCCCNC(=O)c1ccc2c3c(onc13)-c1ccccc1C2=O,5.83
12,C/C(=N/NC(=O)c1cc(O)c(O)c(O)c1)c1ccc([N+](=O)[O-])cc1,4.74
13,CN1CCN(C2=C(Cl)C(=O)C(c3cnc(N4CCCCC4)s3)=C(Cl)C2=O)CC1,6.82
14,O=C(OCC1O[C@@H](OC(=O)c2cc(O)c(O)c(O)c2)[C@@H](OC(=O)c2cc(O)c(O)c(O)c2)[C@@H](OC(=O)c2cc(O)c(O)c(O)c2)[C@@H]1OC(=O)c1cc(O)c(O)c(O)c1)c1cc(O)c(O)c(O)c1 (stereo partly drawn),6.43
15,CCNc1ccc2noc3c2c1C(=O)c1ccccc1-3,4.65
16,Nc1c(C(=O)NCC2CCCO2)sc2nc3c(c(-c4ccco4)c12)CC/C3=C\c1ccco1 (stereo not drawn),5.51
17,CN(C)c1ncc(C2=C(Cl)C(=O)C(N3CCCC3)=C(Cl)C2=O)s1,5.94
18,O=C(O[C@@H]1OC2COC(=O)c3cc(O)c(O)c(O)c3-c3c(cc(O)c(O)c3O)C(=O)O[C@@H]([C@H]1O)[C@@H]2O)c1cc(O)c(O)c(O)c1,6.01
19,CN(C)[C@@H]1C(=O)C(C(=O)NCN2CCCC2)=C(O)[C@@]2(O)C(=O)C3=C(O)c4c(O)cccc4[C@@](C)(O)C3CC12 (stereo partly drawn),5.43
20,O=C(Cc1csc(N2CCOCC2)n1)N/N=C/c1ccc(O)c(O)c1O,5.12
21,O=C1OCC2OC(O)C(O)C(O)C2OC(=O)c2cc(O)c(O)c(O)c2-c2c(O)c(O)c3oc(=O)c4c(c(O)c(O)c5oc(=O)c2c3c54)-c2c1cc(O)c(O)c2O (stereo not drawn),5.76
22,O=c1c2ccccc2sn1-c1ccc(S(=O)(=O)N2CCCC2)cc1,6.28
23,COc1ccc(C2=CC(=O)C=CC2=O)cc1,5.09
24,CCN(CC)S(=O)(=O)c1cccc(C(=O)N/N=C/c2ccc(O)c(O)c2O)c1,5.48
25,CN=c1scc(C)n1/N=C/c1ccc(O)c(O)c1O,5.06
26,O=[N+]([O-])c1ccc(Sc2cccc[n+]2[O-])c2nonc12,5.39
27,CCC(=O)NC(c1ccc(C)cc1)c1cc([N+](=O)[O-])c2cccnc2c1O (stereo not drawn),4.94
28,O=C(COc1ccccc1C(=O)N/N=C\c1ccc(O)c(O)c1)N/N=C/c1ccc(O)c(O)c1,5.71
29,NS(=O)(=O)c1ccc(N/N=C/c2ccc(O)c(O)c2O)c([N+](=O)[O-])c1,5.78
